# Source: patent publication US12258354B2, “AhR modulators” (IDEAYA BIOSCIENCES, INC., priority 2018, dated 2025)
# Target: T1, hAhR (Homo sapiens, UniProt P35869)
# T1 construct: Stably integrated DRE-luciferase cell lines were generated by transducing the both cell lines with Cignal XRE luciferase reporter; endogenous in cells; host or cells: HEPG2 DRE-Luc cells (only the XRE luciferase reporter was transduced)
# T1 sequence (P35869 11-848): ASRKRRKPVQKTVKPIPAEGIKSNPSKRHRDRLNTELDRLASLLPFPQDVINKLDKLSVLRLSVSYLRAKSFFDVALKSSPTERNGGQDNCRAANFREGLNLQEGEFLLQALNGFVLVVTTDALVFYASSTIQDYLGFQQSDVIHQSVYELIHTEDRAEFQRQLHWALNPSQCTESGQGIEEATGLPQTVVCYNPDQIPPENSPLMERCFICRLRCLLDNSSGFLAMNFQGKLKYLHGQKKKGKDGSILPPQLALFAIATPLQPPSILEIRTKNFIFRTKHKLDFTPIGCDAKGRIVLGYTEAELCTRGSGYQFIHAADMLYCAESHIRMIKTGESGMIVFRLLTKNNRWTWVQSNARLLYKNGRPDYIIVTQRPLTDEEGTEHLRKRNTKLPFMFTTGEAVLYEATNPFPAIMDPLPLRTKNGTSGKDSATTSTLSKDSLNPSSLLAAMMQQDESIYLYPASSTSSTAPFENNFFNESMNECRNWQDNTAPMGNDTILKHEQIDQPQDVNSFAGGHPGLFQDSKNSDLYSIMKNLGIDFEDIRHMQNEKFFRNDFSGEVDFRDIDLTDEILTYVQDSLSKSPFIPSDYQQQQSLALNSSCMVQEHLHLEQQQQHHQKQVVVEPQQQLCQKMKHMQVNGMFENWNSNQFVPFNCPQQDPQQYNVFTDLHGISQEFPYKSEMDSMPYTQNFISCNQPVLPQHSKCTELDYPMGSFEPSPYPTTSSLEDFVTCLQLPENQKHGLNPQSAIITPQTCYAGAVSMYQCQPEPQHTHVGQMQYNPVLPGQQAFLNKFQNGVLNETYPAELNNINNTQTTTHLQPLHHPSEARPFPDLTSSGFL
# Assay: DRE-luciferase transcriptional reporter assay in HEPG2 DRE-Luc cells, TCDD-induced (antagonist mode)
# Format: cell-based
# Conditions: relative IC50, 3 nM TCDD, 24-hour incubation, firefly luciferase readout
# Method in brief: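 Stable DRE(XRE)-luciferase HEPG2 clone seeded in OptiMEM with 0.5% heat-inactivated FBS, then given a semi-log compound dilution plus TCDD at 3 nM final. After 24 h, cells were lysed and firefly luminescence read. Response was normalised between TCDD and vehicle, and relative IC50 was taken as half-reduction between the fitted curve plateaus.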
row,Compound,IC50
1,"Cc1cc(-c2ncc3cc(C(F)(F)F)ccc3n2)ccc1N1CCn2nc(CN3CCC4(CC3)COC4)c(C)c2C1=O [Example 102, 2-((2-oxa-7-azaspiro[3.5]nonan-7-yl)methyl)-3-methyl-5-(2-methyl-4-(6-(trifluoromethyl)quinazolin-2-yl)phenyl)-6,7-dihydropyrazolo[1,5-a]pyrazin-4 (5H)-one]",< 200 nM
2,"Cc1cc(-c2ncc3cc(C(F)(F)F)ccc3n2)ccc1N1CC(CO)n2ncc(C)c2C1=O (centres unmarked) [Example 114, 7-(hydroxymethyl)-3-methyl-5-(2-methyl-4-(6-(trifluoromethyl)quinazolin-2-yl)phenyl)-6,7-dihydropyrazolo[1,5-a]pyrazin-4 (5H)-one]",< 200 nM

# Now from value to compound:
row,IC50,Compound
1,< 200 nM,"Cc1cc(-c2ncc3nc(C(F)(F)F)ccc3n2)ccc1N1CCn2ncc(C)c2C1=O [compound 016, 3-methyl-5-(2-methyl-4-(6-(trifluoromethyl)pyrido[3,2-d]pyrimidin-2-yl)phenyl)-6,7-dihydropyrazolo[1,5-a]pyrazin-4 (5H)-one]"
2,500 to 1000 nM,"Cc1cc(-c2ccc3nc(F)ccc3n2)ccc1N1CCOc2cnn(C)c2C1=O [compound 052, 7-(4-(6-fluoro-1,5-naphthyridin-2-yl)-2-methylphenyl)-1-methyl-6,7-dihydro-1H-pyrazolo[3,4-f][1,4]oxazepin-8 (5H)-one]"
3,< 200 nM,"Cc1cc(-c2ncc3cc(C(F)(F)F)ccc3n2)ccc1N1CCOc2cn(CCO)nc2C1=O [compound 037, 2-(2-hydroxyethyl)-7-(2-methyl-4-(6-(trifluoromethyl)quinazolin-2-yl)phenyl)-6,7-dihydro-2H-pyrazolo[3,4-f][1,4]oxazepin-8 (5H)-one]"
